Test results: ChEMBL document CHEMBL1201862, “PubChem BioAssay data set” (2004)
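Following 48 hours of exposure in 96-well plates, responses at five concentrations were used to interpolate endpoints linearly. At the GI50, growth is halved.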 Active and inactive are the calls of the source. Cut-off read from the data, not from the text of the source: active = GI50 up to about 1.1 µM and inactive = higher.

Columns and labels:
Assay in all cases: growth of human tumour cells (NCI), 48 h
MDA-N = system: MDA-N
MDA-MB-435 = system: MDA-MB-435
BT-549 = system: BT-549
T47D = system: T47D

Row | SMILES | GI50 (MDA-N) | GI50 (MDA-MB-435) | GI50 (BT-549) | GI50 (T47D)
1 | O=C(O)c1c(CC(Cc2ccc3c(c2)CCC3)C(=O)O)ccc2c1CCC2 (stereo not given) | > 100 µM (inactive) | > 100 µM (inactive) | > 100 µM (inactive) | –
2 | O=C(CCCN1CCC2(CC1)OC(=O)N(c1ccccc1)C2=O)c1ccccc1 | > 100 µM (inactive) | > 100 µM (inactive) | – | > 100 µM (inactive)
3 | CC(C)=CC[S+]([O-])c1ccccc1NC1=CC(=O)CC(C)(C)C1 (stereo not given) | > 100 µM (inactive) | > 100 µM (inactive) | > 100 µM (inactive) | > 100 µM (inactive)
4 | COC1OC2COC(c3ccccc3)OC2C(O)C1OC(=S)c1ccccc1 (stereo not given) | 27.3 µM (inactive) | 1.31 µM (inactive) | 53.1 µM (inactive) | 14.9 µM (inactive)
5 | CC1OC(O)CC(N(C)C)C1O.CC1OC(O)CCC1O.CCC1CC(O)c2c(O)c3c(c(O)c2C1O)C(=O)c1cccc(O)c1C3=O (stereo not given) | 0.0284 µM (active) | 0.023 µM (active) | 0.0448 µM (active) | 0.0242 µM (active)
6 | CCOC(=O)COc1cc(-c2ccccc2F)nc2cc3c(cc12)OCO3 | > 100 µM (inactive) | > 100 µM (inactive) | > 100 µM (inactive) | 79.8 µM (inactive)
7 | O=C(CNc1cccc(Cl)c1)Nn1c(-c2ccccc2)nc2ccccc2c1=O | 9.59 µM (inactive) | 4.2 µM (inactive) | 2.16 µM (inactive) | –
8 | CC(=O)OC(C)c1cc2c(s1)C(=O)c1sccc1C2=O (stereo not given) | 0.0735 µM (active) | 0.192 µM (active) | 0.7 µM (active) | 2.58 µM (inactive)
9 | Cc1ccc(C)c(C2NC(=O)c3ccccc3N2)c1 (stereo not given) | 0.0986 µM (active) | 0.0792 µM (active) | 5.25 µM (inactive) | 2.72 µM (inactive)
10 | NCCCN(CCCCN(CCCN)C(=O)OCc1ccccc1)C(=O)OCc1ccccc1 | – | > 100 µM (inactive) | > 100 µM (inactive) | > 100 µM (inactive)
11 | CC(=O)OCC1(CNc2nc(N)ncc2C#N)CC(CCc2ccccc2)C1 (stereo not given) | 28.6 µM (inactive) | 26.2 µM (inactive) | 87.1 µM (inactive) | 13.3 µM (inactive)
12 | NCOC(=O)Cc1ccc(Br)cc1 | > 100 µM (inactive) | – | > 100 µM (inactive) | > 100 µM (inactive)
13 | CC1SC(=O)SC1C (stereo not given) | > 100 µM (inactive) | > 100 µM (inactive) | – | > 100 µM (inactive)
14 | COc1ccc(OC)c2c(C(C)=O)cccc12 | – | – | – | > 100 µM (inactive)
15 | COc1ccc2c(O)c1-c1c(OC)ccc(c1O)SSc1ccc(OC)c(c1O)-c1c(OC)ccc(c1O)SS2 | > 100 µM (inactive) | > 100 µM (inactive) | – | 20.8 µM (inactive)
16 | NC(Cc1ccc(CP(=O)(O)O)cc1)C(=O)O (stereo not given) | > 100 µM (inactive) | > 100 µM (inactive) | – | > 100 µM (inactive)
17 | COc1ccc(N[S+]([O-])C2CCCCC2)cc1 (stereo not given) | – | > 100 µM (inactive) | – | –
18 | COC(=O)[C@H]1C=NN[C@@H]1C(=O)N1[C@H]2CC3CC[C@@]2(CS1(=O)=O)C3(C)C | – | > 100 µM (inactive) | > 100 µM (inactive) | –
19 | O=C1CC2(CCNCC2)C(=O)N1N1CCCCC1 | > 100 µM (inactive) | – | > 100 µM (inactive) | > 100 µM (inactive)
20 | CC(C)(Br)C(=O)/C=C/c1ccccc1 | 3.5 µM (inactive) | 5.46 µM (inactive) | – | 2.47 µM (inactive)
21 | O=C1CCCCc2cccc(O)c21 | – | > 100 µM (inactive) | > 100 µM (inactive) | > 100 µM (inactive)
22 | CC1CN=C(N(C)C(=O)Nc2ccc(Cl)cc2)S1 (stereo not given) | 8.69 µM (inactive) | – | – | 4.19 µM (inactive)
23 | Nc1nc(N)c2ncn(Cc3ccccc3CO)c2n1 | – | > 100 µM (inactive) | > 100 µM (inactive) | > 100 µM (inactive)
24 | CC(C)C(O)(C(=O)OCN1C(=O)C2C3C=CC(C2C1=O)C1C2C(=O)N(COC(=O)C(O)(C(C)C)C(C)O)C(=O)C2C31)C(C)O (stereo not given) | > 100 µM (inactive) | > 100 µM (inactive) | – | > 100 µM (inactive)
25 | Cn1c(=O)n2c(-c3ccccc3)c(-c3ccccc3)n2c1=O | > 100 µM (inactive) | – | > 100 µM (inactive) | –
